ChEMBL document CHEMBL3885881, “DrugMatrix”

Organism: Rattus norvegicus
Test: DrugMatrix - Regimen: Daily Repeat
Assay type: toxicity, organism-based, Sprague-Dawley
Design: regimen Daily Repeat, gender Male, age 6-8 weeks
Details: in vivo, po, route oral GAVAGE, vehicle 100 % WATER; for ABSOLUTE BASOPHIL / ABSOLUTE EOSINOPHIL / ABSOLUTE LYMPHOCYTE / ABSOLUTE MONOCYTE / ABSOLUTE SEGMENTED NEUTROPHIL / BASOPHIL / EOSINOPHIL / ERYTHROCYTE COUNT / HEMATOCRIT / HEMOGLOBIN / LEUKOCYTE COUNT / LYMPHOCYTE / MEAN CORPUSCULAR HEMOGLOBIN / MEAN CORPUSCULAR HEMOGLOBIN CONCENTRATION / MEAN CORPUSCULAR VOLUME / MONOCYTE / NEUTROPHIL / NUCLEATED RED BLOOD CELLS / PLATELET COUNT: tissue Blood; for ALANINE AMINOTRANSFERASE / ALBUMIN / ALKALINE PHOSPHATASE / ASPARTATE AMINOTRANSFERASE / BLOOD UREA NITROGEN / CARBON DIOXIDE / CHLORIDE / CHOLESTEROL / CREATINE PHOSPHOKINASE / CREATININE / GLUCOSE / LACTATE DEHYDROGENASE / LIPASE / PHOSPHORUS / POTASSIUM / SODIUM / TOTAL BILIRUBIN / TOTAL PROTEIN / URIC ACID: tissue Plasma
[1] = 20 mg/kg, 72 h, dose level Low, time 3 day
[2] = 20 mg/kg, 120 h, dose level Low, time 5 day
[3] = 2000 mg/kg, 72 h, dose level High, time 3 day
[4] = 2000 mg/kg, 120 h, dose level High, time 5 day

Compound: C[C@H]1O[C@H](O[C@H]2[C@H](O)[C@@H](O)[C@@H](O[C@H]3[C@H](O)[C@@H](O)C(O)O[C@@H]3CO)O[C@@H]2CO)[C@H](O)[C@@H](O)[C@@H]1N[C@H]1C=C(CO)[C@@H](O)[C@H](O)[C@H]1O (some centres not stated) [ACARBOSE]
- ABSOLUTE BASOPHIL [1]: 0 CELLS/uL
- ABSOLUTE EOSINOPHIL [1]: 64.67 CELLS/uL
- ABSOLUTE LYMPHOCYTE [1]: 10120.67 CELLS/uL
- ABSOLUTE MONOCYTE [1]: 0 CELLS/uL
- ABSOLUTE SEGMENTED NEUTROPHIL [1]: 948 CELLS/uL
- BASOPHIL [1]: 0%
- EOSINOPHIL [1]: 0.67%
- ERYTHROCYTE COUNT [1]: 5.03 x10E6/uL
- HEMATOCRIT [1]: 31.8%
- HEMOGLOBIN [1]: 12.87 G/DL
- LEUKOCYTE COUNT [1]: 11.13 x10E3/uL
- LYMPHOCYTE [1]: 91.33%
- MEAN CORPUSCULAR HEMOGLOBIN [1]: 25.6 pg
- MEAN CORPUSCULAR HEMOGLOBIN CONCENTRATION [1]: 40.47 G/DL
- MEAN CORPUSCULAR VOLUME [1]: 63.17 fL
- MONOCYTE [1]: 0%
- NEUTROPHIL [1]: 8%
- NUCLEATED RED BLOOD CELLS [1]: 0 /100WBC
- PLATELET COUNT [1]: 1088.33 x10E3/uL
- ALANINE AMINOTRANSFERASE [1]: 51.33 u/L
- ALBUMIN [1]: 4.1 G/DL
- ALKALINE PHOSPHATASE [1]: 389.33 u/L
- ASPARTATE AMINOTRANSFERASE [1]: 87.67 u/L
- BLOOD UREA NITROGEN [1]: 16.67 mg/dL
- CARBON DIOXIDE [1]: 24.33 mmol/L
- CHLORIDE [1]: 102.33 MEQ/L
- CHOLESTEROL [1]: 70.33 mg/dL
- CREATINE PHOSPHOKINASE [1]: 377 u/L
- CREATININE [1]: 0.18 mg/dL
- GLUCOSE [1]: 148.33 mg/dL
- LACTATE DEHYDROGENASE [1]: 368.33 u/L
- LIPASE [1]: 8.33 u/L
- PHOSPHORUS [1]: 14.03 mg/dL
- POTASSIUM [1]: 6.96 MEQ/L
- SODIUM [1]: 145.97 MEQ/L
- TOTAL BILIRUBIN [1]: 0.23 mg/dL
- TOTAL PROTEIN [1]: 5.73 G/DL
- URIC ACID [1]: 1.43 mg/dL
- ABSOLUTE BASOPHIL [2]: 0 CELLS/uL
- ABSOLUTE EOSINOPHIL [2]: 33.67 CELLS/uL
- ABSOLUTE LYMPHOCYTE [2]: 11112 CELLS/uL
- ABSOLUTE MONOCYTE [2]: 101.33 CELLS/uL
- ABSOLUTE SEGMENTED NEUTROPHIL [2]: 919.67 CELLS/uL
- BASOPHIL [2]: 0%
- EOSINOPHIL [2]: 0.33%
- ERYTHROCYTE COUNT [2]: 5.14 x10E6/uL
- HEMATOCRIT [2]: 33.7%
- HEMOGLOBIN [2]: 13.33 G/DL
- LEUKOCYTE COUNT [2]: 12.17 x10E3/uL
- LYMPHOCYTE [2]: 91%
- MEAN CORPUSCULAR HEMOGLOBIN [2]: 26 pg
- MEAN CORPUSCULAR HEMOGLOBIN CONCENTRATION [2]: 39.57 G/DL
- MEAN CORPUSCULAR VOLUME [2]: 65.63 fL
- MONOCYTE [2]: 1%
- NEUTROPHIL [2]: 7.67%
- NUCLEATED RED BLOOD CELLS [2]: 1 /100WBC
- PLATELET COUNT [2]: 1353.33 x10E3/uL
- ALANINE AMINOTRANSFERASE [2]: 52.33 u/L
- ALBUMIN [2]: 4.4 G/DL
- ALKALINE PHOSPHATASE [2]: 361.67 u/L
- ASPARTATE AMINOTRANSFERASE [2]: 74.67 u/L
- BLOOD UREA NITROGEN [2]: 17.33 mg/dL
- CARBON DIOXIDE [2]: 27.33 mmol/L
- CHLORIDE [2]: 101.33 MEQ/L
- CHOLESTEROL [2]: 74 mg/dL
- CREATINE PHOSPHOKINASE [2]: 186 u/L
- CREATININE [2]: 0.17 mg/dL
- GLUCOSE [2]: 180.33 mg/dL
- LACTATE DEHYDROGENASE [2]: 91.33 u/L
- LIPASE [2]: 8.67 u/L
- PHOSPHORUS [2]: 13.03 mg/dL
- POTASSIUM [2]: 6.7 MEQ/L
- SODIUM [2]: 145.5 MEQ/L
- TOTAL BILIRUBIN [2]: 0.2 mg/dL
- TOTAL PROTEIN [2]: 6.1 G/DL
- URIC ACID [2]: 1.6 mg/dL
- ABSOLUTE BASOPHIL [3]: 0 CELLS/uL
- ABSOLUTE EOSINOPHIL [3]: 47 CELLS/uL
- ABSOLUTE LYMPHOCYTE [3]: 15977.33 CELLS/uL
- ABSOLUTE MONOCYTE [3]: 106.67 CELLS/uL
- ABSOLUTE SEGMENTED NEUTROPHIL [3]: 835.67 CELLS/uL
- BASOPHIL [3]: 0%
- EOSINOPHIL [3]: 0.33%
- ERYTHROCYTE COUNT [3]: 5.96 x10E6/uL
- HEMATOCRIT [3]: 39.13%
- HEMOGLOBIN [3]: 15.37 G/DL
- LEUKOCYTE COUNT [3]: 16.97 x10E3/uL
- LYMPHOCYTE [3]: 94%
- MEAN CORPUSCULAR HEMOGLOBIN [3]: 25.73 pg
- MEAN CORPUSCULAR HEMOGLOBIN CONCENTRATION [3]: 39.27 G/DL
- MEAN CORPUSCULAR VOLUME [3]: 65.6 fL
- MONOCYTE [3]: 0.67%
- NEUTROPHIL [3]: 5%
- NUCLEATED RED BLOOD CELLS [3]: 1 /100WBC
- PLATELET COUNT [3]: 1523.33 x10E3/uL
- ALANINE AMINOTRANSFERASE [3]: 43 u/L
- ALBUMIN [3]: 4.63 G/DL
- ALKALINE PHOSPHATASE [3]: 324.67 u/L
- ASPARTATE AMINOTRANSFERASE [3]: 88 u/L
- BLOOD UREA NITROGEN [3]: 20.33 mg/dL
- CARBON DIOXIDE [3]: 28.33 mmol/L
- CHLORIDE [3]: 105.67 MEQ/L
- CHOLESTEROL [3]: 86 mg/dL
- CREATINE PHOSPHOKINASE [3]: 443.33 u/L
- CREATININE [3]: 0.21 mg/dL
- GLUCOSE [3]: 160.67 mg/dL
- LACTATE DEHYDROGENASE [3]: 447.33 u/L
- LIPASE [3]: 10 u/L
- PHOSPHORUS [3]: 14.07 mg/dL
- POTASSIUM [3]: 7.15 MEQ/L
- SODIUM [3]: 150.93 MEQ/L
- TOTAL BILIRUBIN [3]: 0.1 mg/dL
- TOTAL PROTEIN [3]: 6.8 G/DL
- URIC ACID [3]: 2.5 mg/dL
- ABSOLUTE BASOPHIL [4]: 0 CELLS/uL
- ABSOLUTE EOSINOPHIL [4]: 0 CELLS/uL
- ABSOLUTE LYMPHOCYTE [4]: 17167.33 CELLS/uL
- ABSOLUTE MONOCYTE [4]: 176.67 CELLS/uL
- ABSOLUTE SEGMENTED NEUTROPHIL [4]: 1189.33 CELLS/uL
- BASOPHIL [4]: 0%
- EOSINOPHIL [4]: 0%
- ERYTHROCYTE COUNT [4]: 5.82 x10E6/uL
- HEMATOCRIT [4]: 35.33%
- HEMOGLOBIN [4]: 14.37 G/DL
- LEUKOCYTE COUNT [4]: 18.53 x10E3/uL
- LYMPHOCYTE [4]: 92.33%
- MEAN CORPUSCULAR HEMOGLOBIN [4]: 24.67 pg
- MEAN CORPUSCULAR HEMOGLOBIN CONCENTRATION [4]: 40.67 G/DL
- MEAN CORPUSCULAR VOLUME [4]: 60.77 fL
- MONOCYTE [4]: 1%
- NEUTROPHIL [4]: 6.67%
- NUCLEATED RED BLOOD CELLS [4]: 0 /100WBC
- PLATELET COUNT [4]: 1249.33 x10E3/uL
- ALANINE AMINOTRANSFERASE [4]: 68 u/L
- ALBUMIN [4]: 4.23 G/DL
- ALKALINE PHOSPHATASE [4]: 385.33 u/L
- ASPARTATE AMINOTRANSFERASE [4]: 101.67 u/L
- BLOOD UREA NITROGEN [4]: 21.67 mg/dL
- CARBON DIOXIDE [4]: 33.67 mmol/L
- CHLORIDE [4]: 102.33 MEQ/L
- CHOLESTEROL [4]: 76.67 mg/dL
- CREATINE PHOSPHOKINASE [4]: 356 u/L
- CREATININE [4]: 0.23 mg/dL
- GLUCOSE [4]: 153.67 mg/dL
- LACTATE DEHYDROGENASE [4]: 345 u/L
- LIPASE [4]: 10.33 u/L
- PHOSPHORUS [4]: 12.8 mg/dL
- POTASSIUM [4]: 7.54 MEQ/L
- SODIUM [4]: 145.93 MEQ/L
- TOTAL BILIRUBIN [4]: 0.1 mg/dL
- TOTAL PROTEIN [4]: 5.93 G/DL
- URIC ACID [4]: 1.6 mg/dL
